Test results from patent US11242350B2, “Spirocyclic ROR-gamma modulators” (Escalier Biosciences B.V., priority 2018, dated 2022).

target: RORγt (Homo sapiens (Human), UniProt P51449); assay: Gal4 ligand binding assay (RORγt Gal fusion luciferase reporter assay in HEK293T cells); assay type: cell-based; settings: RORγt inverse agonists in RORγt Gal fusion assay
Method in brief: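 Stable HEK293T line expressing the receptor fused to the Gal4 DBD, with a Gal4 UAS-driven luciferase; constitutively active, so agonism and inverse agonism both register. 10-point 1:3 titrations, 60 μM to 3 nM as prepared in media (added as 2×), 0.2% final DMSO; 24 h at 37 °C. Luminescence normalised to vehicle-only wells.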

RORγt, sequence (P51449 269-508): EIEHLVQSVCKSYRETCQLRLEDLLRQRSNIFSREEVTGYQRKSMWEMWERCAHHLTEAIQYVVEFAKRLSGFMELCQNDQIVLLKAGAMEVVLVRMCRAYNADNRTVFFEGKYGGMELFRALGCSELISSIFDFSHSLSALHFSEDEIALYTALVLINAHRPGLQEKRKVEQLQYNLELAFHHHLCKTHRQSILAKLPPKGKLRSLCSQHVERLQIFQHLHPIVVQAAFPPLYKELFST

Question: Which IC50 does the source give for `CCc1c(F)c(CN2CC3(C2)CN(S(C)(=O)=O)C3)cc(F)c1-c1ccc(C(O)(C(F)(F)F)C(F)(F)F)cc1Cl` [Example 72, 2-(2-chloro-2′-ethyl-3′,6′-difluoro-4′-((6-(methylsulfonyl)-2,6-diazaspiro[3.3]heptan-2-yl)methyl)-[1,1′-biphenyl]-4-yl)-1,1,1,3,3,3-hexafluoropropan-2-ol] here?
Answer: < 50 nM

Question: `Cc1cc(C(O)(C(F)(F)F)C(F)(F)F)ccc1-c1cc(F)c(CN2CC3(C2)CN(S(C)(=O)=O)C3)cc1C(C)C` [Example 79, 1,1,1,3,3,3-hexafluoro-2-(5′-fluoro-2′-isopropyl-2-methyl-4′-((6-(methylsulfonyl)-2,6-diazaspiro[3.3]heptan-2-yl)methyl)-[1,1′-biphenyl]-4-yl)propan-2-ol] was tested. Which IC50 did it give?
Answer: < 50 nM

Question: `CCc1cc(CN2CC3(C2)CN(S(C)(=O)=O)C3)cnc1-c1ccc(C(O)(C(F)(F)F)C(F)(F)F)cc1` [Example 52, 2-(4-(3-ethyl-5-((6-(methylsulfonyl)-2,6-diazaspiro[3.3]heptan-2-yl)methyl)pyridin-2-yl)phenyl)-1,1,1,3,3,3-hexafluoropropan-2-ol] was tested. Which IC50 did it give?
Answer: 50 to 250 nM

Question: How did the IC50 turn out when `CCc1cc(CN2CCC3(C2)CS(=O)(=O)C3)ccc1-c1ccc(C(O)(C(F)(F)F)C(F)(F)F)cc1` [Example 17, 6-((2-ethyl-4′-(1,1,1,3,3,3-hexafluoro-2-hydroxypropan-2-yl)-[1,1′-biphenyl]-4-yl)methyl)-2-thia-6-azaspiro[3.4]octane 2,2-dioxide] was run?
Answer: 50 to 250 nM

Question: `CCc1c(-c2ccc(C(O)(C(F)(F)F)C(F)(F)F)cc2)ccc(CN2CC3(C2)CN(S(C)(=O)=O)C3)c1F` [Example 37, 2-(2′-ethyl-3′-fluoro-4′-((6-(methylsulfonyl)-2,6-diazaspiro[3.3]heptan-2-yl)methyl)-[1,1′-biphenyl]-4-yl)-1,1,1,3,3,3-hexafluoropropan-2-ol] was tested. Which IC50 did it give?
Answer: < 50 nM

Question: For `CCc1cc(CN2CCC3(CCS(=O)(=O)C3)C2)ccc1-c1ccc(C(O)(C(F)(F)F)C(F)(F)F)cc1` (stereo not shown) [Example 58, 7-((2-ethyl-4′-(1,1,1,3,3,3-hexafluoro-2-hydroxypropan-2-yl)-[1,1′-biphenyl]-4-yl)methyl)-2-thia-7-azaspiro[4.4]nonane 2,2-dioxide], which IC50 is on record?
Answer: < 50 nM

Question: For `CCc1cc(CN2CC3(C2)CN(S(C)(=O)=O)C3)c(F)cc1-c1ccc(C(O)(C(F)(F)F)C(F)(F)F)cc1Cl` [Example 83, 2-(2-chloro-2′-ethyl-5′-fluoro-4′-((6-(methylsulfonyl)-2,6-diazaspiro[3.3]heptan-2-yl)methyl)-[1,1′-biphenyl]-4-yl)-1,1,1,3,3,3-hexafluoropropan-2-ol], which IC50 is on record?
Answer: < 50 nM

Question: With `CS(=O)(=O)N1CC2(CN(Cc3cc(F)c(-c4ccc(C(O)(C(F)(F)F)C(F)(F)F)cc4Cl)c(C4CC4)c3F)C2)C1` [Example 92, 2-(2-chloro-2′-cyclopropyl-3′,6′-difluoro-4′-((6-(methylsulfonyl)-2,6-diazaspiro[3.3]heptan-2-yl)methyl)-[1,1′-biphenyl]-4-yl)-1,1,1,3,3,3-hexafluoropropan-2-ol] as the molecule, how does the IC50 read?
Answer: < 50 nM

Question: `CS(=O)(=O)N1CC2(CN(Cc3ccc(-c4ccc(C(O)(C(F)(F)F)C(F)(F)F)cc4)c(C4CC4)c3)C2)C1` [Example 42, 2-(2′-cyclopropyl-4′-((6-(methylsulfonyl)-2,6-diazaspiro[3.3]heptan-2-yl)methyl)-[1,1′-biphenyl]-4-yl)-1,1,1,3,3,3-hexafluoropropan-2-ol] was tested. Which IC50 did it give?
Answer: < 50 nM

Question: Which IC50 does the source give for `CCc1cc(CN2CC3(CCN(C(=O)OC(C)(C)C)C3)C2)ccc1-c1ccc(C(O)(C(F)(F)F)C(F)(F)F)cc1` [Example 38, tert-butyl 2-((2-ethyl-4′-(1,1,1,3,3,3-hexafluoro-2-hydroxypropan-2-yl)-[1,1′-biphenyl]-4-yl)methyl)-2,6-diazaspiro[3.4]octane-6-carboxylate] here?
Answer: 50 to 250 nM

Question: Which IC50 does the source give for `CCc1cc(CN2CC3(C2)CN(S(C)(=O)=O)C3)ncc1-c1ccc(C(O)(C(F)(F)F)C(F)(F)F)cc1` [Example 60, 2-(4-(4-ethyl-6-((6-(methylsulfonyl)-2,6-diazaspiro[3.3]heptan-2-yl)methyl)pyridin-3-yl)phenyl)-1,1,1,3,3,3-hexafluoropropan-2-ol] here?
Answer: < 50 nM

Question: With `Cc1cc(C(O)(C(F)(F)F)C(F)(F)F)ccc1-c1ccc(CN2CC3(C2)CS(=O)(=O)C3)cc1C(C)C` [Example 12, 6-((4′-(1,1,1,3,3,3-hexafluoro-2-hydroxypropan-2-yl)-2-isopropyl-2′-methyl-[1,1′-biphenyl]-4-yl)methyl)-2-thia-6-azaspiro[3.3]heptane 2,2-dioxide] as the molecule, how does the IC50 read?
Answer: 50 to 250 nM

Question: With `CC(C)c1c(F)c(CN2CC3(C2)CN(S(C)(=O)=O)C3)cc(F)c1-c1ccc(C(O)(C(F)(F)F)C(F)(F)F)cc1F` [Example 86, 1,1,1,3,3,3-hexafluoro-2-(2,3′,6′-trifluoro-2′-isopropyl-4′-((6-(methylsulfonyl)-2,6-diazaspiro[3.3]heptan-2-yl)methyl)-[1,1′-biphenyl]-4-yl)propan-2-ol] as the molecule, how does the IC50 read?
Answer: < 50 nM

Question: With `CCc1cc(CN2CC3(C2)CN(S(C)(=O)=O)C3)cc(F)c1-c1ccc(C(O)(C(F)(F)F)C(F)(F)F)cc1` [Example 35, 2-(2′-ethyl-6′-fluoro-4′-((6-(methylsulfonyl)-2,6-diazaspiro[3.3]heptan-2-yl)methyl)-[1,1′-biphenyl]-4-yl)-1,1,1,3,3,3-hexafluoropropan-2-ol] as the molecule, how does the IC50 read?
Answer: < 50 nM

Question: For `CC(C)c1cc(CN2CC3(C2)CN(S(C)(=O)=O)C3)c(F)c(F)c1-c1ccc(C(O)(C(F)(F)F)C(F)(F)F)cc1` [Example 14, 2-(2′,3′-difluoro-6′-isopropyl-4′-((6-(methylsulfonyl)-2,6-diazaspiro[3.3]heptan-2-yl)methyl)-[1,1′-biphenyl]-4-yl)-1,1,1,3,3,3-hexafluoropropan-2-ol], which IC50 is on record?
Answer: < 50 nM

Question: For `CCc1cc(CN2CC3(C2)CN(S(C)(=O)=O)C3)c(F)cc1-c1ccc(C(O)(C(F)(F)F)C(F)(F)F)cc1F` [Example 82, 2-(2′-ethyl-2,5′-difluoro-4′-((6-(methylsulfonyl)-2,6-diazaspiro[3.3]heptan-2-yl)methyl)-[1,1′-biphenyl]-4-yl)-1,1,1,3,3,3-hexafluoropropan-2-ol], which IC50 is on record?
Answer: < 50 nM

Question: How did the IC50 turn out when `Cc1cc(C(O)(C(F)(F)F)C(F)(F)F)ccc1-c1c(F)cc(CN2CC3(C2)CN(S(C)(=O)=O)C3)c(F)c1C1CC1` [Example 89, 2-(2′-cyclopropyl-3′,6′-difluoro-2-methyl-4′-((6-(methylsulfonyl)-2,6-diazaspiro[3.3]heptan-2-yl)methyl)-[1,1′-biphenyl]-4-yl)-1,1,1,3,3,3-hexafluoropropan-2-ol] was run?
Answer: < 50 nM

Question: For `CCc1cc(CN2CCC3(CCNC3=O)C2)ccc1-c1ccc(C(O)(C(F)(F)F)C(F)(F)F)cc1` (stereo not shown) [Example 53, 7-((2-ethyl-4′-(1,1,1,3,3,3-hexafluoro-2-hydroxypropan-2-yl)-[1,1′-biphenyl]-4-yl)methyl)-2,7-diazaspiro[4.4]nonan-1-one], which IC50 is on record?
Answer: 50 to 250 nM

Question: How did the IC50 turn out when `CCc1cc(CN2CC3(C2)CN(S(C)(=O)=O)C3)ccc1-c1ccc(C(O)(C(F)(F)F)C(F)(F)F)cn1` [Example 63, 2-(6-(2-ethyl-4-((6-(methylsulfonyl)-2,6-diazaspiro[3.3]heptan-2-yl)methyl)phenyl)pyridin-3-yl)-1,1,1,3,3,3-hexafluoropropan-2-ol] was run?
Answer: 50 to 250 nM

Question: Which IC50 does the source give for `CC(C)c1c(F)c(CN2CC3(C2)CN(S(C)(=O)=O)C3)cc(F)c1-c1ccc(C(O)(C(F)(F)F)C(F)(F)F)cc1` [Example 7, 2-(3′,6′-difluoro-2′-isopropyl-4′-((6-(methylsulfonyl)-2,6-diazaspiro[3.3]heptan-2-yl)methyl)-[1,1′-biphenyl]-4-yl)-1,1,1,3,3,3-hexafluoropropan-2-ol] here?
Answer: < 50 nM

Question: `CCc1cc(CN2CC3(C2)CS(=O)(=O)C3)ccc1-c1ccc(C(O)(C(F)(F)F)C(F)(F)F)cc1C` [Example 18, 6-((2-ethyl-4′-(1,1,1,3,3,3-hexafluoro-2-hydroxypropan-2-yl)-2′-methyl-[1,1′-biphenyl]-4-yl)methyl)-2-thia-6-azaspiro[3.3]heptane 2,2-dioxide] was tested. Which IC50 did it give?
Answer: < 50 nM

Question: For `CCc1c(F)c(CN2CC3(C2)CN(S(C)(=O)=O)C3)cc(F)c1-c1ccc(C(O)(C(F)(F)F)C(F)(F)F)cc1` [Example 69, 2-(2′-ethyl-3′,6′-difluoro-4′-((6-(methylsulfonyl)-2,6-diazaspiro[3.3]heptan-2-yl)methyl)-[1,1′-biphenyl]-4-yl)-1,1,1,3,3,3-hexafluoropropan-2-ol], which IC50 is on record?
Answer: < 50 nM
